# Assay results from ChEMBL document CHEMBL1135257, “Bivalent inhibition of beta-tryptase: distance scan of neighboring subunits by dibasic inhibitors” (Bioorg Med Chem Lett, 2002).
# Biological target: Tryptase beta-1 (Homo sapiens, UniProt Q15661)
# Assay: Inhibitory activity against human Tryptase beta was evaluated
# Sequence of Tryptase beta-1 (Q15661 whole entry): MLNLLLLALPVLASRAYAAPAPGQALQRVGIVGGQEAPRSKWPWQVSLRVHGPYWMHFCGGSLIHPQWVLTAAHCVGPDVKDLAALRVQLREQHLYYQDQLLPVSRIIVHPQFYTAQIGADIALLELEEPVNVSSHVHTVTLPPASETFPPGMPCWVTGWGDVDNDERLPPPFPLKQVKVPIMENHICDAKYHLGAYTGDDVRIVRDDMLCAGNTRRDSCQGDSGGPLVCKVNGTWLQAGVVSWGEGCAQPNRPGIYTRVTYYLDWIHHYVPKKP
row,Compound,Ki [nM]
1,COC(=O)C(Cc1cccc(CN)c1)NC(=O)CCNC(=O)C[C@@H]1NC(=O)[C@@H](CC(=O)NCCC(=O)NC(Cc2cccc(CN)c2)C(=O)OC)NC1=O (some centres not stated),10
2,COC(=O)C(Cc1cccc(CN)c1)NC(=O)CC[C@@H]1NC(=O)[C@@H](CC(=O)NCC(=O)NC(Cc2cccc(CN)c2)C(=O)OC)NC1=O (some centres not stated),180
3,COC(=O)C(Cc1cccc(CN)c1)NC(=O)CCCNC(=O)C[C@@H]1NC(=O)[C@@H](CC(=O)NCCCC(=O)NC(Cc2cccc(CN)c2)C(=O)OC)NC1=O (some centres not stated),350
4,COC(=O)C(Cc1cccc(CN)c1)NC(=O)CCC1NC(=O)[C@@H](CCC(=O)NC(Cc2cccc(CN)c2)C(=O)OC)NC1=O (some centres not stated),2400
5,COC(=O)[C@@H](Cc1ccc(CN)cc1)NC(C)=O,213000
6,COC(=O)C(Cc1cccc(CN)c1)NC(=O)CNC(=O)C[C@@H]1NC(=O)[C@@H](CC(=O)NCC(=O)NC(Cc2cccc(CN)c2)C(=O)OC)NC1=O (some centres not stated),18
7,COC(=O)[C@@H](Cc1cccc(CN)c1)NC(C)=O,13700
